Test results taken from paper PMC12150326 (The Journal of Organic Chemistry, 2025).
Read-outs that look alike come from different tables or passages of the source.

Experiments:
Assay type in all cases: cell-based, human
CAKI-1 = tested on: CAKI-1
In short: (§1)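 Tested in five doses (top 100 μM, lowest 0.01 μM) within the 60 Cell Screen; COMPARE used TGI responses relative to known tubulin inhibitors.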

COLO 205 = tested on: COLO 205
In short: as §1

EKVX = tested on: EKVX
In short: (§2)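 Screening via NCI-60, five log concentrations from 0.01 to 100 μM; TGI compared by COMPARE with reference tubulin agents.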

HCT-116 = tested on: HCT-116
In short: as §1

HCT-15 = tested on: HCT-15
In short: as §1

HL-60(TB) = tested on: HL-60(TB)
In short: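 First, compounds went into the NCI-60 cell panel. Next, they were dosed at 0.01, 0.1, 1, 10 and 100 μM. Finally, TGI levels fed a COMPARE analysis against prior tubulin-inhibitor data.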

HOP-62 = tested on: HOP-62
In short: as §2

HS 578T = tested on: HS 578T
In short: as §1

HT29 = tested on: HT29
In short: as §1

K-562 = tested on: K-562
In short: as §1

LOX IMVI = tested on: LOX IMVI
In short: as §2

M14 = tested on: M14
In short: as §1

MDA-MB-231/ATCC = tested on: MDA-MB-231/ATCC
In short: as §1

MDA-MB-435 = tested on: MDA-MB-435
In short: as §2

NCI-H23 = tested on: NCI-H23
In short: as §1

NCI-H522 = tested on: NCI-H522
In short: as §1

NCI/ADR-RES = tested on: NCI/ADR-RES
In short: as §1

OVCAR-4 = tested on: OVCAR-4
In short: as §1

OVCAR-8 = tested on: OVCAR-8
In short: as §1

PC-3 = tested on: PC-3
In short: as §2

RXF 393 = tested on: RXF 393
In short: as §1

SK-MEL-2 = tested on: SK-MEL-2
In short: as §1

SN12C = tested on: SN12C
In short: as §1

SW-620 = tested on: SW-620
In short: as §1

U251 = tested on: U251
In short: as §1

UACC-257 = tested on: UACC-257
In short: as §1

UACC-62 = tested on: UACC-62
In short: as §2

For COc1cc(C)c(-c2ccc(=O)c(OC)cc2C)c(OC)c1OC (single isomer, unassigned) [(aS)-iso-6], the Log10GI50 (CAKI-1) was -4.71 Molar, the Log10LC50 (CAKI-1) was > -4.00 Molar and the Log10TGI (CAKI-1) was > -4.00 Molar. It also gave a GI50 (CAKI-1; Homo sapiens) of 19.5 µM, a Log10GI50 (CAKI-1; […]) of -4.71 Molar and a Log10GI50 (COLO 205) of -4.66 Molar. The Log10LC50 (COLO 205) was > -4.00 Molar, the Log10TGI (COLO 205) was -4.23 Molar and the GI50 (COLO 205; Homo sapiens) was 21.9 µM. For the same compound, the Log10GI50 (COLO 205; […]) was -4.66 Molar, the Log10GI50 (EKVX) was -4.18 Molar and the Log10LC50 (EKVX) was > -4.00 Molar. The Log10TGI (EKVX) was > -4.00 Molar, the GI50 (EKVX; Homo sapiens) was 66.1 µM and the Log10GI50 (EKVX; […]) was -4.18 Molar. For the same compound, the Log10GI50 (HCT-116) was -4.60 Molar, the Log10LC50 (HCT-116) was > -4.00 Molar and the Log10TGI (HCT-116) was > -4.00 Molar. For the same compound, the GI50 (HCT-116; Homo sapiens) was 25.1 µM, the Log10GI50 (HCT-116; […]) was -4.6 Molar and the Log10GI50 (HCT-15) was -4.89 Molar. The Log10LC50 (HCT-15) was > -4.00 Molar, the Log10TGI (HCT-15) was > -4.00 Molar and the GI50 (HCT-15; Homo sapiens) was 12.9 µM. The Log10GI50 (HCT-15; […]) was -4.89 Molar, the Log10GI50 (HL-60(TB)) was -4.68 Molar and the Log10LC50 (HL-60(TB)) was > -4.00 Molar. It also gave a Log10TGI (HL-60(TB)) of -4.02 Molar, a GI50 (HL-60(TB); Homo sapiens) of 20.9 µM and a Log10GI50 (HL-60(TB); […]) of -4.68 Molar. For the same compound, the Log10GI50 (HOP-62) was -4.46 Molar, the Log10LC50 (HOP-62) was > -4.00 Molar and the Log10TGI (HOP-62) was > -4.00 Molar. For the same compound, the GI50 (HOP-62; Homo sapiens) was 34.7 µM, the Log10GI50 (HOP-62; […]) was -4.46 Molar and the Log10GI50 (HS 578T) was -4.80 Molar. The Log10LC50 (HS 578T) was > -4.00 Molar, the Log10TGI (HS 578T) was -4.19 Molar and the GI50 (HS 578T; Homo sapiens) was 15.8 µM. The Log10GI50 (HS 578T; […]) was -4.8 Molar, the Log10GI50 (HT29) was -4.60 Molar and the Log10LC50 (HT29) was > -4.00 Molar. The Log10TGI (HT29) was -4.03 Molar, the GI50 (HT29; Homo sapiens, HT-29) was 25.1 µM and the Log10GI50 (HT29; […]) was -4.6 Molar. The Log10GI50 (K-562) was -5.30 Molar, the Log10LC50 (K-562) was > -4.00 Molar and the Log10TGI (K-562) was > -4.00 Molar. It also gave a GI50 (K-562; Homo sapiens, K562) of 5.01 µM, a Log10GI50 (K-562; […]) of -5.3 Molar and a Log10GI50 (LOX IMVI) of -5.18 Molar. The Log10LC50 (LOX IMVI) was > -4.00 Molar, the Log10TGI (LOX IMVI) was > -4.00 Molar and the GI50 (LOX IMVI; Homo sapiens) was 6.61 µM. The Log10GI50 (LOX IMVI; […]) was -5.18 Molar, the Log10GI50 (M14) was -4.76 Molar and the Log10LC50 (M14) was > -4.00 Molar. The Log10TGI (M14) was > -4.00 Molar, the GI50 (M14; Homo sapiens) was 17.4 µM and the Log10GI50 (M14; […]) was -4.76 Molar. For the same compound, the Log10GI50 (MDA-MB-231/ATCC) was -4.63 Molar, the Log10LC50 (MDA-MB-231/ATCC) was > -4.00 Molar and the Log10TGI (MDA-MB-231/ATCC) was > -4.00 Molar. For the same compound, the GI50 (MDA-MB-231/ATCC; Homo sapiens) was 23.4 µM, the Log10GI50 (MDA-MB-231/ATCC; […]) was -4.63 Molar and the Log10GI50 (MDA-MB-435) was -5.46 Molar. The Log10LC50 (MDA-MB-435) was > -4.00 Molar, the Log10TGI (MDA-MB-435) was -4.81 Molar and the GI50 (MDA-MB-435; Homo sapiens) was 3.47 µM. For the same compound, the Log10GI50 (MDA-MB-435; […]) was -5.46 Molar, the Log10GI50 (NCI-H23) was -4.33 Molar and the Log10LC50 (NCI-H23) was > -4.00 Molar. The Log10TGI (NCI-H23) was > -4.00 Molar, the GI50 (NCI-H23; Homo sapiens) was 46.8 µM and the Log10GI50 (NCI-H23; […]) was -4.33 Molar. For the same compound, the Log10GI50 (NCI-H522) was -4.69 Molar, the Log10LC50 (NCI-H522) was > -4.00 Molar and the Log10TGI (NCI-H522) was -4.15 Molar. It also gave a GI50 (NCI-H522; Homo sapiens) of 20.4 µM, a Log10GI50 (NCI-H522; […]) of -4.69 Molar and a Log10GI50 (NCI/ADR-RES) of -4.55 Molar. The Log10LC50 (NCI/ADR-RES) was > -4.00 Molar, the Log10TGI (NCI/ADR-RES) was > -4.00 Molar and the GI50 (NCI/ADR-RES; Homo sapiens) was 28.2 µM. For the same compound, the Log10GI50 (NCI/ADR-RES; […]) was -4.55 Molar, the Log10GI50 (OVCAR-4) was -4.04 Molar and the Log10LC50 (OVCAR-4) was > -4.00 Molar. For the same compound, the Log10TGI (OVCAR-4) was > -4.00 Molar, the GI50 (OVCAR-4; Homo sapiens) was 91.2 µM and the Log10GI50 (OVCAR-4; […]) was -4.04 Molar. The Log10GI50 (OVCAR-8) was -4.45 Molar, the Log10LC50 (OVCAR-8) was > -4.00 Molar and the Log10TGI (OVCAR-8) was > -4.00 Molar. For the same compound, the GI50 (OVCAR-8; Homo sapiens) was 35.5 µM, the Log10GI50 (OVCAR-8; […]) was -4.45 Molar and the Log10GI50 (PC-3) was -4.50 Molar. The Log10LC50 (PC-3) was > -4.00 Molar, the Log10TGI (PC-3) was > -4.00 Molar and the GI50 (PC-3; Homo sapiens) was 31.6 µM. For the same compound, the Log10GI50 (PC-3; […]) was -4.5 Molar, the Log10GI50 (RXF 393) was -4.68 Molar and the Log10LC50 (RXF 393) was > -4.00 Molar. The Log10TGI (RXF 393) was -4.12 Molar, the GI50 (RXF 393; Homo sapiens) was 20.9 µM and the Log10GI50 (RXF 393; […]) was -4.68 Molar. For the same compound, the Log10GI50 (SK-MEL-2) was -4.69 Molar, the Log10LC50 (SK-MEL-2) was > -4.00 Molar and the Log10TGI (SK-MEL-2) was > -4.00 Molar. For the same compound, the GI50 (SK-MEL-2; Homo sapiens) was 20.4 µM, the Log10GI50 (SK-MEL-2; […]) was -4.69 Molar and the Log10GI50 (SN12C) was -4.42 Molar. The Log10LC50 (SN12C) was > -4.00 Molar, the Log10TGI (SN12C) was > -4.00 Molar and the GI50 (SN12C; Homo sapiens) was 38 µM. The Log10GI50 (SN12C; […]) was -4.42 Molar, the Log10GI50 (SW-620) was -4.55 Molar and the Log10LC50 (SW-620) was > -4.00 Molar. The Log10TGI (SW-620) was > -4.00 Molar, the GI50 (SW-620; Homo sapiens) was 30.9 µM and the Log10GI50 (SW-620; […]) was -4.51 Molar. The Log10GI50 (U251) was -4.51 Molar, the Log10LC50 (U251) was > -4.00 Molar and the Log10TGI (U251) was > -4.00 Molar. For the same compound, the GI50 (U251; Homo sapiens, U-251) was 18.8 µM, the Log10GI50 (U251; […]) was -4.725 Molar and the Log10GI50 (UACC-257) was -4.15 Molar. For the same compound, the Log10LC50 (UACC-257) was > -4.00 Molar, the Log10TGI (UACC-257) was > -4.00 Molar and the GI50 (UACC-257; Homo sapiens) was 70.8 µM. For the same compound, the Log10GI50 (UACC-257; […]) was -4.15 Molar, the Log10GI50 (UACC-62) was -4.78 Molar and the Log10LC50 (UACC-62) was > -4.00 Molar. For the same compound, the Log10TGI (UACC-62) was > -4.00 Molar, the GI50 (UACC-62; Homo sapiens) was 16.6 µM and the Log10GI50 (UACC-62; […]) was -4.78 Molar.
